What was measured:
[1] = system: SNAP/FLAG-hGLP1R^A316T versus ^WT; assay: Nb37 bystander NanoBiT assay (plasma membrane and endosomal GLP-1R activity); assay type: cell-based, human; details: log(Emax/EC50), Fig. 8B,C; for Agonist-induced endosomal A316T activity versus WT: n = 4 (GLP-1), n = 3 (Ex-4)
Method: Nb37 bystander NanoBiT assays
INS-1 832/3 Glp1r-/- cells were seeded in 6-well plates and co-transfected with the following plasmids:
200 ng pSNAP/FLAG-hGLP1RWT or A316T, 500 ng Gαs (human, short isoform), 500 ng Gβ1 (human), 500 ng Gγ2 (human), 100 ng RIC8B (human, isoform 2), and either 100 ng LgBiT-CAAX (KRAS CAAX motif N-terminally fused with LgBiT) or 500 ng Endofin-LgBiT (Endofin FYVE domain C-terminally fused with LgBiT), plus 100 ng (plasma membrane assay) or 500 ng (endosomal assay) SmBiT-Nb37 [Nb37 cDNA synthesised by GenScript C- terminally fused to SmBiT with a 15 amino acid flexible linker (123) ] and adjusted for total DNA with pcDNA3.1 for the LgBiT-CAAX transfection. 24 hours after transfection, cells were exposed to NanoGlo Live Cell Reagent (Promega) with furimazine (1:20 dilution) and bioluminescence read in a Flexstation 3 plate reader for 8 min before and 30 min after stimulation by […]
AUCs were calculated for each agonist concentration and fitted to log(agonist) versus response four-parameter curves using GraphPad Prism 10.1.2, with logEC50 (potency) and Emax (efficacy) calculated for each replicate dose response curve. Baseline endosomal over plasma membrane bioluminescence ratios were also calculated.
GLP- 1R conformational ECD opening time resolved-fluorescence resonance energy transfer (TR- […]
INS-1 832/3 Glp1r-/- SNAP/FLAG-hGLP1RWT or A316T cells were labelled with SNAP-Lumi4- Tb (Revvity; 40 nM, 60 min at 37°C in complete medium). After washing to remove unbound probe, cells were resuspended in HBSS ± 100 nM plasma membrane dye NR12A (a gift from Prof Andrey Klymchenko, University of Strasbourg, France) for 5 min before washing again. Labelled cells were transferred to 96-well half-area white plates and baseline TR-FRET signal from Lumi-4Tb (donor) and NR12A (acceptor) recorded for 5 min at 37°C using a Flexstation 3 plate reader with the following settings: λex = 335 nm, λem = 490 and 590 n m, delay 50 µs , integration time 300 µs. GLP-1 was then added at serial doses, and […]

[2] = system: hGLP1R^A316T/A316T versus hGLP1R^+/+ mice; assay: IPGTT acutely and 6 hours after GLP-1RA, chow-fed homozygous mice; assay type: in vivo, mouse; details: chow diet; for Agonist-specific glycemic response (ΔAUC), 6-hour time point, A316T/A316T versus +/+: IPGTT 6 hours postadministration, n = 9; for Agonist-specific glycemic response (ΔAUC), 6-hour time point, A316T/A316T versus +/+ / Agonist-specific glycemic response (ΔAUC, agonist- minus vehicle-treated AUC), acute, A316T/A316T versus +/+: Fig. 1J,K; for Agonist-specific glycemic response (ΔAUC, agonist- minus vehicle-treated AUC), acute, A316T/A316T versus +/+: acute IPGTT, n = 9 per genotype
Method: To examine acute and prolonged glycemic responses to GLP-1RAs, animals were fasted for 2 hours, starting at 8 a.m. on the morning of the experiments, before IPGTTs. GLP-1RAs were then coadministered at the indicated concentrations with 20% (w/v) D-glucose via intraperitoneal injection at weight-adjusted volumes. Baseline glucose readings were taken via tail venipuncture, and subsequent readings were taken at various time points after glucose ± GLP-1RA administration as for the OGTTs (0-hour acute IPGTTs). For GLP-1RAs with shorter half-lives (exendin-4 and exendin-F1), IPGTTs were repeated 6 hours after the start of the initial IPGTT, with continued fasting. For the extended half-life GLP-1RA semaglutide, IPGTTs were performed 24 and 72 hours after GLP-1RA administration, with access to food restored at the end of each IPGTT. The in vivo IPGTT studies were performed with a crossover design, with each mouse receiving vehicle and each GLP-1RA treatment with washout periods of at least 1 week between the different GLP-1RA treatments.

Substance	Plasma membrane activity, A316T versus WT [1]	Agonist-induced endosomal A316T activity versus WT [1]	Agonist-specific glycemic response (ΔAUC), 6-hour time point, A316T/A316T versus +/+ ([2]; 2 nmol/kg ip)	Agonist-specific glycemic response (ΔAUC, agonist- minus vehicle-treated AUC), acute, A316T/A316T versus +/+ ([2]; 2 nmol/kg ip)	IPGTT glucose responses (AUC), A316T/A316T versus +/+ ([2]; 2 nmol/kg ip, acutely and 6 hours postagonist, Fig. 1F-I)	Desensitization at the 6-hour IPGTT versus exendin-4 ([2]; both mouse genotypes)
GLP-1(7-36)NH2	without changes	tendency to be increased	–	–	–	–
exendin-4	without changes	significantly reduced	paradoxical increase in blood glucose levels compared to vehicle	significantly reduced	–	–
exendin-F1	–	–	absent	similarly reduced	without reaching statistical significance	reduced desensitization
